Experimental data reported in patent US6737383B1, “Herbicidal oxadiazolidines” (priority 1999, dated 2004).

Tests used:
purple nutsedge = assay: Test B pre/postemergence purple nutsedge; format: in vivo, Cyperus rotundus
Method in brief: (§1)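 Herbicidal effect was estimated by eye on a ten-point control scale after plants spent twelve to sixteen days in a greenhouse following soil or foliar treatment. Foliar sprays targeted plants at one to four leaves; all doses were formulated in a non-phytotoxic solvent with surfactant.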

surinam grass = assay: Test B pre/postemergence surinam grass; format: in vivo, Brachiaria decumbens
Method in brief: as §1

rape = assay: Test B pre/postemergence rape; format: in vivo, Brassica napus
Method in brief: as §1

giant foxtail = assay: Test B pre/postemergence giant foxtail; format: in vivo, Setaria faberii
Method in brief: as §1

corn = assay: Test B pre/postemergence corn; format: in vivo, Zea mays
Method in brief: as §1

duck salad = assay: Test B flood test duck salad; format: in vivo, Heteranthera limosa
Method in brief: (§2)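 Plants were grown to the 2-leaf stage before treatment with test chemical, then held in a greenhouse for twelve to sixteen days. Injury was visually rated against untreated controls on a 0–10 scale, where 0 is no effect and 10 is complete control.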

smallflower flatsedge = assay: Test B flood test smallflower flatsedge; format: in vivo, Cyperus difformis
Method in brief: as §2

blackgrass = assay: Test B pre/postemergence blackgrass; format: in vivo, Alopecurus myosuroides
Method in brief: as §1

pigweed = assay: Test B pre/postemergence pigweed; format: in vivo, Amaranthus retroflexus
Method in brief: as §1

velvetleaf = assay: Test B pre/postemergence velvetleaf; format: in vivo, Abutilon theophrasti
Method in brief: as §1

wheat = assay: Test B pre/postemergence wheat; format: in vivo, Triticum aestivum
Method in brief: as §1

sugar beet = assay: Test B pre/postemergence sugar beet; format: in vivo, Beta vulgaris
Method in brief: as §1

rice = assay: Test B flood test rice; format: in vivo, Oryza sativa
Method in brief: as §2

crabgrass = assay: Test B pre/postemergence crabgrass; format: in vivo, Digitaria sanguinalis
Method in brief: as §1

morningglory = assay: Test B pre/postemergence morningglory; format: in vivo, Ipomoea hederacea
Method in brief: as §1

cocklebur = assay: Test B pre/postemergence cocklebur; format: in vivo, Xanthium strumarium
Method in brief: as §1

[1] = Postemergence, Rate 62 g/ha, scale 0 to 10, 0 is no effect, 10 is complete control
[2] = Postemergence, Rate 250 g/ha, scale 0 to 10, 0 no effect, 10 complete control
[3] = Preemergence, Rate 31 g/ha, visual rating, scale 0 to 10 (0 no effect, 10 complete control)
[4] = Preemergence, Rate 62 g/ha, scale 0 to 10, 0 is no effect, 10 is complete control
[5] = Preemergence, Rate 125 g/ha, scale 0 to 10 (0 no effect, 10 complete control)
[6] = Preemergence, Rate 250 g/ha, scale of 0 to 10 where 0 is no effect and 10 is complete control
[7] = Rate 31 g/ha, Postemergence, scale 0 to 10
[8] = Rate 125 g/ha, Postemergence, scale 0 to 10, 0 no effect, 10 complete control
[9] = Rate 31 g/ha, Postemergence section (flood test species), scale 0 to 10
[10] = Rate 125 g/ha, Postemergence section (flood test species), scale 0 to 10, 0 no effect, 10 complete control
[11] = flood test, listed under Postemergence, Rate 250 g/ha, scale 0 to 10, 0 no effect, 10 complete control

SMILES: CC(C)N(C(=O)n1oc(=O)n(-c2ccc(F)cc2F)c1=O)c1ccc(F)cc1F [Compound 22]
- Nutsedge plant response rating (purple nutsedge; [1]): 0
- Nutsedge plant response rating (purple nutsedge; [2]): 0
- Nutsedge plant response rating (purple nutsedge; [3]): 0
- Plant response rating, Nutsedge (purple nutsedge; [4]): 0
- Plant response rating, Nutsedge (purple nutsedge; [5]): 0
- Plant response rating, Nutsedge (purple nutsedge; [6]): 0
- Nutsedge plant response rating (purple nutsedge; [7]): 0
- Nutsedge plant response rating (purple nutsedge; [8]): 0
- B. signalgrass plant response rating (surinam grass; [1]): 0
- B. signalgrass plant response rating (surinam grass; [2]): 2
- B. signalgrass plant response rating (surinam grass; [3]): 0
- Plant response rating, B. signalgrass (surinam grass; [4]): 0
- Plant response rating, B. signalgrass (surinam grass; [5]): 2
- Plant response rating, B. signalgrass (surinam grass; [6]): 4
- B. signalgrass plant response rating (surinam grass; [7]): 0
- B. signalgrass plant response rating (surinam grass; [8]): 0
- Rape plant response rating (rape; [1]): 0
- Rape plant response rating (rape; [2]): 0
- Rape plant response rating (rape; [3]): 0
- Plant response rating, Rape (rape; [4]): 0
- Plant response rating, Rape (rape; [5]): 3
- Plant response rating, Rape (rape; [6]): 3
- Rape plant response rating (rape; [7]): 0
- Rape plant response rating (rape; [8]): 0
- Giant foxtail plant response rating (giant foxtail; [1]): 0
- Giant foxtail plant response rating (giant foxtail; [2]): 4
- Giant foxtail plant response rating (giant foxtail; [3]): 3
- Plant response rating, Giant foxtail (giant foxtail; [4]): 3
- Plant response rating, Giant foxtail (giant foxtail; [5]): 4
- Plant response rating, Giant foxtail (giant foxtail; [6]): 7
- Giant foxtail plant response rating (giant foxtail; [7]): 0
- Giant foxtail plant response rating (giant foxtail; [8]): 2
- Corn plant response rating (corn; [1]): 0
- Corn plant response rating (corn; [2]): 0
- Corn plant response rating (corn; [3]): 0
- Plant response rating, Corn (corn; [4]): 0
- Plant response rating, Corn (corn; [5]): 0
- Plant response rating, Corn (corn; [6]): 2
- Corn plant response rating (corn; [7]): 0
- Corn plant response rating (corn; [8]): 0
- Ducksalad plant response rating (duck salad; [1]): 0
- Ducksalad plant response rating (duck salad; [9]): 0
- Ducksalad plant response rating (duck salad; [10]): 0
- Ducksalad plant response rating (duck salad; [11]): 0
- S. Flatsedge plant response rating (smallflower flatsedge; [1]): 0
- S. Flatsedge plant response rating (smallflower flatsedge; [10]): 0
- S. Flatsedge plant response rating (smallflower flatsedge; [11]): 4
- Blackgrass plant response rating (blackgrass; [1]): 1
- Blackgrass plant response rating (blackgrass; [2]): 3
- Blackgrass plant response rating (blackgrass; [3]): 0
- Plant response rating, Blackgrass (blackgrass; [4]): 0
- Plant response rating, Blackgrass (blackgrass; [5]): 4
- Plant response rating, Blackgrass (blackgrass; [6]): 6
- Blackgrass plant response rating (blackgrass; [7]): 0
- Blackgrass plant response rating (blackgrass; [8]): 1
- Redroot pigweed plant response rating (pigweed; [1]): 0
- Redroot pigweed plant response rating (pigweed; [2]): 2
- Redroot pigweed plant response rating (pigweed; [3]): 0
- Plant response rating, Redroot pigweed (pigweed; [4]): 0
- Plant response rating, Redroot pigweed (pigweed; [5]): 2
- Plant response rating, Redroot pigweed (pigweed; [6]): 5
- Redroot pigweed plant response rating (pigweed; [7]): 0
- Redroot pigweed plant response rating (pigweed; [8]): 1
- Velvetleaf plant response rating (velvetleaf; [1]): 0
- Velvetleaf plant response rating (velvetleaf; [2]): 0
- Velvetleaf plant response rating (velvetleaf; [3]): 0
- Plant response rating, Velvetleaf (velvetleaf; [4]): 0
- Plant response rating, Velvetleaf (velvetleaf; [5]): 0
- Plant response rating, Velvetleaf (velvetleaf; [6]): 1
- Velvetleaf plant response rating (velvetleaf; [8]): 0
- Wheat plant response rating (wheat; [1]): 0
- Wheat plant response rating (wheat; [2]): 0
- Wheat plant response rating (wheat; [3]): 0
- Plant response rating, Wheat (wheat; [4]): 0
- Plant response rating, Wheat (wheat; [5]): 0
- Plant response rating, Wheat (wheat; [6]): 0
- Wheat plant response rating (wheat; [8]): 0
- Sugarbeets plant response rating (sugar beet; [1]): 0
- Sugarbeets plant response rating (sugar beet; [2]): 0
- Sugarbeets plant response rating (sugar beet; [3]): 0
- Plant response rating, Sugarbeets (sugar beet; [4]): 0
- Plant response rating, Sugarbeets (sugar beet; [5]): 4
- Plant response rating, Sugarbeets (sugar beet; [6]): 7
- Sugarbeets plant response rating (sugar beet; [8]): 0
- Rice plant response rating (rice; [1]): 0
- Rice plant response rating (rice; [9]): 0
- Rice plant response rating (rice; [10]): 0
- Rice plant response rating (rice; [11]): 0
- Crabgrass plant response rating (crabgrass; [1]): 0
- Crabgrass plant response rating (crabgrass; [2]): 9
- Crabgrass plant response rating (crabgrass; [3]): 3
- Plant response rating, Crabgrass (crabgrass; [4]): 3
- Plant response rating, Crabgrass (crabgrass; [5]): 4
- Plant response rating, Crabgrass (crabgrass; [6]): 8
- Crabgrass plant response rating (crabgrass; [7]): 0
- Crabgrass plant response rating (crabgrass; [8]): 4
- Morningglory plant response rating (morningglory; [1]): 0
- Morningglory plant response rating (morningglory; [2]): 2
- Morningglory plant response rating (morningglory; [3]): 0
- Plant response rating, Morningglory (morningglory; [4]): 0
- Plant response rating, Morningglory (morningglory; [5]): 0
- Plant response rating, Morningglory (morningglory; [6]): 0
- Morningglory plant response rating (morningglory; [7]): 0
- Morningglory plant response rating (morningglory; [8]): 2
- Cocklebur plant response rating (cocklebur; [1]): 0
- Cocklebur plant response rating (cocklebur; [2]): 0
- Cocklebur plant response rating (cocklebur; [3]): 0
- Plant response rating, Cocklebur (cocklebur; [4]): 0
- Plant response rating, Cocklebur (cocklebur; [5]): 0
- Plant response rating, Cocklebur (cocklebur; [6]): 0
- Cocklebur plant response rating (cocklebur; [7]): 0
- Cocklebur plant response rating (cocklebur; [8]): 0
